Assays:
human CRTH2 [1] = molecular target: T1, human CRTH2 (Homo sapiens, UniProt Q9Y5Y4); assay: CRTH2 fluorescent imaging assay (intracellular calcium, antagonist mode); type: cell-based; design: expressed in transfected cells; host or cells: HT1080-hCRTH2; settings: HT1080-hCRTH2 cells; block of calcium increase caused by 500 nM PGD2
T1 sequence (Q9Y5Y4 1-395): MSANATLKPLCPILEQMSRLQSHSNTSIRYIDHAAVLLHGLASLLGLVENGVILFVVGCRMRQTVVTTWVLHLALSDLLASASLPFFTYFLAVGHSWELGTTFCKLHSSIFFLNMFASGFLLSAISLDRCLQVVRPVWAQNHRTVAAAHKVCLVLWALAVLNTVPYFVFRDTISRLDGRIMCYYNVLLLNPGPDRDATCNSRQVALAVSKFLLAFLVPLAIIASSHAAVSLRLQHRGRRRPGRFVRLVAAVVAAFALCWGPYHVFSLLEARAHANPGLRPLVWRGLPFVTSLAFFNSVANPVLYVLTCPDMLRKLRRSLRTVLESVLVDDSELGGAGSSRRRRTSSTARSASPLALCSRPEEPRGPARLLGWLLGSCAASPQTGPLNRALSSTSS
Procedure: The ability of the disclosed compounds to act as agonists for the hCRTH2 receptor was determined by their ability to cause increases in intracellular calcium via binding to the CRTH2 receptor.
Assays were performed on HEK 293EBNA-hCRTH2 cells that had been grown in DMEM media containing 10% FBS, […] puromycin and 1% penicillin/streptomycin/glutamine (PSG) at 37° C. in 5% CO2 or on HT1080-hCRTH2 cells (a HT1080 cell line stably expressing human CRTH2) that had been grown in alphaMEM media containing 10% FBS, 500 μg/ml hygromycin, 200 nM methotrexate and 1% PSG at 37° C. in 5% CO2.
For the assay, HEK 293EBNA-hCRTH2 cells or HT1080-hCRTH2 cells were grown to approximately 90% confluency and then dislodged from the plate with Trypsin-EDTA, resuspended in DMEM media, seeded in 384 well plates at 2×10^4 cells per well and incubated overnight at 37° C. The cells were loaded with a calcium sensing dye by removing the growth media and replacing it with 30 μL of dye loading Ringer's buffer (136 mM […], 5.4 mM D-Glucose, 20 mM Hepes pH 7.4, 2.1 mM MgCl2, 0.8 mM CaCl2, 0.2% BSA with 1× Calcium3Dye (Molecular Devices) and 2.5 mM Probenecid (Sigma)) per well. The cells were incubated at 37° C. for 1 hour to allow the dye to enter the cells. Compounds were serially diluted in DMSO and then diluted to 4× their final concentration with Ringer's buffer. The compounds were added to a 384 well plate in quadruplicate. In addition to test compounds, several wells contained Ringer's buffer with DMSO. These wells serve as control wells. 10 μL was transferred from compound/control plate to the plate containing cells loaded with dye by a fluorescent imaging plate reader (Molecular Devices). The fluorescence was measured every 4 seconds for 4 minutes. These measurements indicated the level of intracellular calcium. Increases in fluorescence relative to wells containing buffer only indicated an agonist effect of the compound. Measurement at various compound concentrations allowed one to determine the EC50 for these compounds. Following the 4 minute incubation with compound, 20 μL of Ringer's buffer with either 10 nM or 500 nM PGD2 (approximate EC75 for PGD2 in HEK 293EBNA-hCRTH2 cells and HT1080-hCRTH2 cells, respectively) was added to the wells. Inhibition by the compounds of the calcium response due to antagonism of PGD2 action on CRTH2 is reflected by a decrease in fluorescent signal relative to wells containing no compound. The fluorescence was measured every 2 seconds for 10 seconds before addition of PGD2 and every 2 seconds for 110 seconds following addition. Measurement at various compound concentrations allowed one to determine the IC50 for these compounds. EC50 and IC50 values were determined from the experimental results by nonlinear regression using the Prism 4.0 software.

human CRTH2 [2] = molecular target: T1, human CRTH2; assay: CRTH-2 binding assay (scintillation proximity assay, inhibition of 3H-PGD2 binding); design: expressed in transfected cells; host or cells: HEK 293EBNA-hCRTH2 (membrane preparation); settings: inhibition of 3H-PGD2 (3.6 nM) binding to HEK 293EBNA-hCRTH2 membranes; Ki calculated from IC50
Outline: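 Membranes from HEK 293EBNA cells stably expressing human CRTH2 (~20 μg protein/100 μL) with SPA beads and 3.6 nM 3H-PGD2 in 10 mM Hepes pH 7.4, 1 mM EDTA, 10 mM MnCl2, glycerol, 2 h at room temperature, seven compound concentrations in triplicate. Nonspecific binding defined with indomethacin; IC50 converted to Ki using Kd and radioligand concentration.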

IC50 (human CRTH2 [1]) [µM] | Ki (human CRTH2 [2]) [µM] | SMILES
0.019 | < 0.1 | Cc1c(-c2nn(Cc3ccccc3)c(=O)c3ccccc23)c2cc(Cl)ccc2n1CC(=O)O [Example 16, [3-(3-Benzyl-4-oxo-3,4-dihydro-phthalazin-1-yl)-5-chloro-2-methyl-indol-1-yl]-acetic acid]
0.06 | < 0.1 | Cc1c(-c2nn(Cc3ccc(F)cc3)c(=O)c3ccccc23)c2cc(Cl)ccc2n1CC(=O)O [Example 24, {5-Chloro-3-[3-(4-fluoro-benzyl)-4-oxo-3,4-dihydro-phthalazin-1-yl]-2-methyl-indol-1-yl}-acetic acid]
0.17 | < 0.1 | Cc1onc(-c2ccccc2)c1CN1C(c2c(C)n(CC(=O)O)c3ccc(Cl)cc23)c2ccccc2S1(=O)=O (stereo not shown) [Example 61, {5-Chloro-2-methyl-3-[2-(5-methyl-3-phenyl-isoxazol-4-ylmethyl)-1,1-dioxo-2,3-dihydro-1H-1λ^6-benzo[d]isothiazol-3-yl]-indol-1-yl}-acetic acid]
0.022 | < 0.1 | Cc1noc(C)c1CN1C(c2c(C)n(CC(=O)O)c3ccccc23)c2ccc(F)cc2S1(=O)=O (stereo not shown) [Example 62, {3-[2-(3,5-Dimethyl-isoxazol-4-ylmethyl)-6-fluoro-1,1-dioxo-2,3-dihydro-1H-1λ^6-benzo[d]isothiazol-3-yl]-2-methyl-indol-1-yl}-acetic acid]
– | < 1 | Cc1c(C2=NN(Cc3ccc(OC(F)(F)F)cc3)S(=O)(=O)c3ccccc32)c2cc(F)ccc2n1CC(=O)O [Example 84, {3-[2-(4-Trifluoromethoxy-benzyl)-1,1-dioxo-1,2-dihydro-1λ^6-benzo[e][1,2,3]thiadiazin-4-yl]-5-fluoro-2-methyl-indol-1-yl}-acetic acid]
– | < 1 | Cc1c(C2=NN(Cc3cccc(C(F)(F)F)c3)S(=O)(=O)c3ccccc32)c2cc(F)ccc2n1CC(=O)O [Example 85, {3-[2-(3-Trifluoromethyl-benzyl)-1,1-dioxo-1,2-dihydro-1λ^6-benzo[e][1,2,3]thiadiazin-4-yl]-5-fluoro-2-methyl-indol-1-yl}-acetic acid]
– | < 0.1 | Cc1c(C2=NN(C(C)c3ccccc3)S(=O)(=O)c3ccccc32)c2cc(F)ccc2n1CC(=O)O (stereo not shown) [Example 86, {3-[2-(1-phenyl-ethyl)-1,1-dioxo-1,2-dihydro-1λ^6-benzo[e][1,2,3]thiadiazin-4-yl]-5-fluoro-2-methyl-indol-1-yl}-acetic acid]
– | < 1 | Cc1c(C2=NN(CCc3ccccc3)S(=O)(=O)c3ccccc32)c2cc(F)ccc2n1CC(=O)O [Example 87, {3-[2-phenethyl-1,1-dioxo-1,2-dihydro-1λ^6-benzo[e][1,2,3]thiadiazin-4-yl]-5-fluoro-2-methyl-indol-1-yl}-acetic acid]
– | < 1 | Cc1c(C2=NN(CCOc3ccccc3)S(=O)(=O)c3ccccc32)c2cc(F)ccc2n1CC(=O)O [Example 88, {3-[2-(2-Phenoxy-ethyl)-1,1-dioxo-1,2-dihydro-1λ^6-benzo[e][1,2,3]thiadiazin-4-yl]-5-fluoro-2-methyl-indol-1-yl}-acetic acid]
– | < 1 | Cc1c(C2=NN(CCOc3ccc(Cl)cc3)S(=O)(=O)c3ccccc32)c2cc(F)ccc2n1CC(=O)O [Example 89, (3-{2-[2-(4-Chloro-phenoxy)-ethyl]-1,1-dioxo-1,2-dihydro-1λ^6-benzo[e][1,2,3]thiadiazin-4-yl}-5-fluoro-2-methyl-indol-1-yl)-acetic acid]
– | < 0.1 | Cc1noc(C)c1CN1N=C(c2c(C)n(CC(=O)O)c3ccc(F)cc23)c2ccccc2S1(=O)=O [Example 90, {3-[2-(3,5-Dimethyl-isoxazol-4-ylmethyl)-1,1-dioxo-1,2-dihydro-1λ^6-benzo[e][1,2,3]thiadiazin-4-yl]-5-fluoro-2-methyl-indol-1-yl}-acetic acid]
– | < 0.1 | CCN1N=C(c2c(C)n(CC(=O)O)c3ccc(F)cc23)c2ccccc2S1(=O)=O [Example 91, [3-(2-Ethyl-1,1-dioxo-1,2-dihydro-1λ^6-benzo[e][1,2,3]thiadiazin-4-yl)-5-fluoro-2-methyl-indol-1-yl]-acetic acid]
– | < 0.1 | CCCN1N=C(c2c(C)n(CC(=O)O)c3ccc(F)cc23)c2ccccc2S1(=O)=O [Example 92, [3-(2-Propyl-1,1-dioxo-1,2-dihydro-1λ^6-benzo[e][1,2,3]thiadiazin-4-yl)-5-fluoro-2-methyl-indol-1-yl]-acetic acid]
– | < 0.1 | Cc1c(C2=NN(C(C)C)S(=O)(=O)c3ccccc32)c2cc(F)ccc2n1CC(=O)O [Example 93, [3-(2-Isopropyl-1,1-dioxo-1,2-dihydro-1λ^6-benzo[e][1,2,3]thiadiazin-4-yl)-5-fluoro-2-methyl-indol-1-yl]-acetic acid]
– | < 0.1 | Cc1c(C2=NN(C3CCCCC3)S(=O)(=O)c3ccccc32)c2cc(F)ccc2n1CC(=O)O [Example 94, [3-(2-Cyclohexyl-1,1-dioxo-1,2-dihydro-1λ^6-benzo[e][1,2,3]thiadiazin-4-yl)-5-fluoro-2-methyl-indol-1-yl]-acetic acid]
